Measured values: US20160009686A1, “VEGFR3 INHIBITORS” (CANCER THERAPEUTICS CRC PTY LIMITED, priority 2012, published 2016)

Experiments:
[1] = biological target: VEGFR3 cytoplasmic domain (Homo sapiens, UniProt P35916); experiment: VEGFR3 Biochemical Assay (AlphaScreen); conditions: GST-fusion enzyme, 500 μM ATP, 90 minutes at 30 degree Celsius (modified form in some cases: Hexa-His-fusion enzyme, 1 μM ATP); read-out: IC50
VEGFR3 = VEGFR3 (Homo sapiens, UniProt P35916); experiment: VEGFR3 Phospho ELISA Assay; format: cell-based; conditions: HMVEC-dLyAD cells, treated for 1 hour, VEGFC stimulated; phospho VEGFR3 relative to Total VEGFR3
VEGFR3, sequence (P35916 25-1363): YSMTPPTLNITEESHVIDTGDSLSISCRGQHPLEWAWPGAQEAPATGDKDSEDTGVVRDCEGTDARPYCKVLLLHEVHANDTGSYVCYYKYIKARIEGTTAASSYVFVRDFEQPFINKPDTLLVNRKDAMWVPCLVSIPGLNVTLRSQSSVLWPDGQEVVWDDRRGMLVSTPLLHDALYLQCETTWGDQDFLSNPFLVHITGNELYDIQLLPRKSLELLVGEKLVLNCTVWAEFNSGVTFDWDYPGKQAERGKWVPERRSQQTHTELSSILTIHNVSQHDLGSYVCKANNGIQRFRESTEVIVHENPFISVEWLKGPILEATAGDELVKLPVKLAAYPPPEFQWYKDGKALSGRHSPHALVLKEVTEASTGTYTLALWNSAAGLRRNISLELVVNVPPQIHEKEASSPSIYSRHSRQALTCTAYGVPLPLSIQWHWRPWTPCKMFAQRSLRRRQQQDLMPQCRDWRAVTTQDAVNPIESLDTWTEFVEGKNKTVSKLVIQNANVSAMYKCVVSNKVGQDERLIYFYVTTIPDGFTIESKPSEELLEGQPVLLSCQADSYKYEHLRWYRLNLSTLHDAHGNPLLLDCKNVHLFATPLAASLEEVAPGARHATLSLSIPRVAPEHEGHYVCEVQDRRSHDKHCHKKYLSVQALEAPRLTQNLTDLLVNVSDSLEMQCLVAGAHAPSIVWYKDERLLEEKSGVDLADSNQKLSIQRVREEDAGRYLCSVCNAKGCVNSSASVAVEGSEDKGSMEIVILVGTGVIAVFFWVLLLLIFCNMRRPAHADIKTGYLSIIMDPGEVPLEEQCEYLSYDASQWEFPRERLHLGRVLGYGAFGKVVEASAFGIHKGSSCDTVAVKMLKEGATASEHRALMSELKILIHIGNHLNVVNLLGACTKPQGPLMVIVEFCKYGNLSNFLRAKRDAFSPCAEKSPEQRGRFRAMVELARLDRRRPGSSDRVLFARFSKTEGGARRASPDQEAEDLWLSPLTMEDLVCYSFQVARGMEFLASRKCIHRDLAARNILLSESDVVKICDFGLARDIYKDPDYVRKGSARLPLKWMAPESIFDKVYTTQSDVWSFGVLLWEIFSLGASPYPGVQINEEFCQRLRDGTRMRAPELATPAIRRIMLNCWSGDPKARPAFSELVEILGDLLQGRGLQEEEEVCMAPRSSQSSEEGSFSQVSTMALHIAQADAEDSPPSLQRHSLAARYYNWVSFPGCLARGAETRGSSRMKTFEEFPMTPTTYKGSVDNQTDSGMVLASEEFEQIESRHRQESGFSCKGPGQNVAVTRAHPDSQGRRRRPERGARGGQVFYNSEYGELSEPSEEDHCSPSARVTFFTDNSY
Procedure: Adult human dermal lymphatic microvascular endothelial cells (HMVEC-dLyAD) (Cat# CC-2810, Lonza) were seeded into clear-bottom, TC treated 12 well plates (Cat #665180, Greiner Bio-One) in EGM-2MV (Cat# CC-3202, Lonza) at 180,000 cells/well (volume 1 mL), and the plates incubated at 37° C. and 5% CO2 for 6 hours.
96 well Maxisorp immuno plates (Cat #439454, Nunc) were coated with 100 μL of Total VEGFR3 capture antibody (Part #841888, Human Total VEGFR3/FLT4 ELISA Kit, Cat # DYC3491, R&D Systems), or Phospho VEGFR3 Capture antibody (Part #841885, Human Phospho VEGFR3/FLT4 ELISA Kit, Cat# DYC2724, R&D Systems). The plates were covered and incubated at room temperature overnight.
The coating antibody was flicked out and the plates washed three times with Wash Buffer (Phosphate buffered saline (137 mM NaCl, 2.7 nM KCl, 8.1 nM Na2HPO4, 1.5 mL KH2PO4, pH 7.2-7.4), 0.05% Tween 20). 300 μL of blocking buffer (5% v/v Tween 20, 5% w/v sucrose in PBS) was then added to wells and plate incubated for 2 hours at room temperature. Blocking solution is flicked out and plates washed three times and tapped dry.
Compound dilution series were prepared in EBM-2 (Cat # CC-3156, Lonza)+0.1% BSA (Cat# A8412, Sigma) with constant 0.1% DMSO concentration. 439 μL of sample or vehicle control was added to the cell monolayers. Cells are treated for 1 hour at 37° C. and 5% CO2. 250 ng/mL Recombinant human VEGFC (Cat #2179-VC, R & D Systems) added to wells and plates incubated for an additional 10 minutes at 37° C. and 5% CO2.
(§1) The media and compounds were removed and the cell monolayer washed once in Dulbecco's Phosphate Buffered Saline (Cat #21600-044, Invitrogen). 130 μL of Lysis buffer added to wells and cell lysate harvested and transferred to tubes and stored on ice. Complete lysis buffer was prepared by adding 10 μL Protease Inhibitor Cocktail (Cat # P8340, Sigma-Aldrich), 10 μL PMSF (Phenylmethanesulfonyl fluoride, Cat # P7626, Sigma-Aldrich, prepared as 500 mM DMSO stock) per 1 mL of Phosphosafe™ Extraction Reagent (Cat #71296, Merck).
The harvested samples were then diluted 1:2 in IC Diluent #18 (5% Tween 20/PBS) and 100 μL transferred to the Total and Phospho VEGFR3 coated, blocked and washed 96 well plates and incubated for 2 hours at room temperature. The plates were then washed three times in wash buffer as described above and tapped dry. For detection of Total VEGFR3 100 μL of Detection antibody (Total VEGFR3 Detection Antibody Part#841888 in Total VEGFR3 kit) diluted in IC Diluent #1 (1% w/v BSA (Cat # A7906, Sigma-Aldrich)/PBS) was added to wells and the plate incubated for 2 hours at room temperature. The plate was then washed three times in wash buffer and tapped dry. 100 μL of streptavidin-HPR diluted in IC diluent #1 Streptavidin-HRP, Part #890803 in Total VEGFR3 kit) was added to wells and incubated at room temperature for 20 minutes followed by washing as described above. 100 μL Substrate solution (3,3′,5,5′-Tetramethylbenzidine (TMB) Liquid Substrate System for ELISA, Cat # T0440, Sigma-Aldrich) was added and the plate incubated for 20 minutes in the dark at room temperature followed by the addition of 50 μL stop solution (2 M H2SO4).
Total VEGFR3 levels were quantified using a Multiskan Ascent plate reader and Ascent software fitted with 450 nm filter.
For detection of Phospho VEGFR3, 100 μL of Detection antibody (Anti-Phospho-Tyrosine-HRP Detection Antibody, Part #841403 in Phospho VEGFR3 kit) was diluted in IC Diluent #1 (1% w/v BSA/PBS), added to the wells and the plate incubated for 2 hours at room temperature. The plate was then washed three times in wash buffer as described above and tapped dry. 100 μL Substrate solution (3,3′,5,5′-Tetramethylbenzidine (TMB) Liquid Substrate System for ELISA, Cat # T0440, Sigma-Aldrich) was added and the plate incubated for 20 minutes in the dark at room temperature followed by the addition of 50 μL stop solution (2 M H2SO4).

VEGFR2 = biological target: T1, VEGFR2 (Homo sapiens, UniProt P35968); experiment: VEGFR2 Phospho ELISA Assay; format: cell-based; conditions: HUVEC, treated for 1 hour, VEGF stimulated; phospho VEGFR2 relative to Total VEGFR2
T1 construct: host or cells: HUVEC
T1 sequence (P35968 20-1356): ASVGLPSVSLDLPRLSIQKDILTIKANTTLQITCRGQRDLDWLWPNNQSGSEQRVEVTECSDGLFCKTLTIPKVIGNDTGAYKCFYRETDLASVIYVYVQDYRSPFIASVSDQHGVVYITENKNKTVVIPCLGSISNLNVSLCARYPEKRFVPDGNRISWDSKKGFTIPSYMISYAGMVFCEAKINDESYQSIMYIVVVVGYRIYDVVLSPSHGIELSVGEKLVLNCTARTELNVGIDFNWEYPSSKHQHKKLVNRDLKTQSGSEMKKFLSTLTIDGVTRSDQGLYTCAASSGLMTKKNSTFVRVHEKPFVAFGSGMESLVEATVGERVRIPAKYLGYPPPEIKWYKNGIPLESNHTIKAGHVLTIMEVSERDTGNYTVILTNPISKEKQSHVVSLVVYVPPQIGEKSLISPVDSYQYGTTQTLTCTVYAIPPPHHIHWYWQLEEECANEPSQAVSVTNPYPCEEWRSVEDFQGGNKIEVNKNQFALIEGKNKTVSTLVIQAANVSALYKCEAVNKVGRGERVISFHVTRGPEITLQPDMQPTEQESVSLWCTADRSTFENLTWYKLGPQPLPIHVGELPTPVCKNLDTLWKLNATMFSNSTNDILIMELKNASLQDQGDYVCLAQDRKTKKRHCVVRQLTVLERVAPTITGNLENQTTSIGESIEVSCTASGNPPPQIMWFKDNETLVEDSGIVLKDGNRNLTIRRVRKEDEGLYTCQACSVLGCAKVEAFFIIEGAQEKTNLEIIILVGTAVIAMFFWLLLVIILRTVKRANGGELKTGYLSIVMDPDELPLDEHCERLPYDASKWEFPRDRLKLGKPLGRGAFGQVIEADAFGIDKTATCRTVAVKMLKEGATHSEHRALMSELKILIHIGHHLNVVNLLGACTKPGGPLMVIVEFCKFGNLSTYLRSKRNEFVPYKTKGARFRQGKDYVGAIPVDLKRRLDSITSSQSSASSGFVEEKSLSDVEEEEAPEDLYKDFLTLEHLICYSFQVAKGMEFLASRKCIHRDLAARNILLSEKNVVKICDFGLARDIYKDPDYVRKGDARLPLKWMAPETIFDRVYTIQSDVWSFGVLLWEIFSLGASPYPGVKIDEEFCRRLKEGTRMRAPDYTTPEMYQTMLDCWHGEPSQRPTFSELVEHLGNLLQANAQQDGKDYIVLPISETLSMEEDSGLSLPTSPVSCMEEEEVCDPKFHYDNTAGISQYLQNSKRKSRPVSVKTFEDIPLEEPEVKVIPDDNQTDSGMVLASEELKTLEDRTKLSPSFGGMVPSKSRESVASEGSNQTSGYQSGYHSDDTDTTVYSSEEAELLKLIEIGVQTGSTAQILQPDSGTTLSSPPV
Procedure: Adult human umbilical vein endothelial cells (HUVEC) (Cat# CC-2519, Lonza) were seeded into clear-bottom, TC treated 12 well plates (Cat #665180, Greiner Bio-One) in EGM-2 (Cat# CC-3162, Lonza) at 180,000 cells/well (volume 1 mL), and the plates incubated at 37° C. and 5% CO2 for 6 hours.
96 well Maxisorp immuno plates (Cat #439454, Nunc) were coated with 100 μL of Total VEGFR2 capture antibody (Part #841434, Human Total VEGFR2/FLT4 ELISA Kit, Cat # DYC1780, R&D Systems), or Phospho VEGFR2 Capture antibody (Part #841419, Human Phospho VEGFR2/FLT4 ELISA Kit, Cat# DYC1766, R&D Systems). The plates were covered and incubated at room temperature overnight.
The coating antibody was flicked out and the plates washed three times with Wash Buffer (Phosphate buffered saline (137 mM NaCl, 2.7 nM KCl, 8.1 nM Na2HPO4, 1.5 mL KH2PO4, pH 7.2-7.4), 0.05% Tween 20). 300 μL of Blocking buffer (1% v/v BSA (Cat# A8412, Sigma) in PBS) was then added to wells and plate incubated for 2 hours at room temperature. Blocking solution is flicked out and plates washed three times and tapped dry.
Compound dilution series were prepared in EBM-2 (Cat # CC-3156, Lonza)+0.1% BSA (Cat# A8412, Sigma) with constant 0.1% DMSO concentration. 427.5 μL of sample or vehicle control was added to the cell monolayers. Cells are treated for 1 hour at 37° C. and 5% CO2. 50 ng/mL Recombinant human VEGF (Cat #293-VC, R & D Systems) added to wells and plates incubated for an additional 10 minutes at 37° C. and 5% CO2.
as §1
The plates were then washed three times in wash buffer as described above and tapped dry.
For detection of Total VEGFR2 100 μL of Detection antibody (Total VEGFR2 Detection Antibody Part#841435 in Total VEGFR2 kit) diluted in IC Diluent #14 (20 mM Tris, 137 mM CaCl2, 0.05% Tween20, 0.1% BSA) was added to wells and the plate incubated for 2 hours at room temperature. The plate was then washed three times in wash buffer and tapped dry. 100 μL of streptavidin-HPR diluted in IC diluent #14 Streptavidin-HRP, Part #890803 in Total VEGFR2 kit) was added to wells and incubated at room temperature for 20 minutes followed by washing as described above. 100 μL Substrate solution (3,3′,5,5′-Tetramethylbenzidine (TMB) Liquid Substrate System for ELISA, Cat # T0440, Sigma-Aldrich) was added and the plate incubated for 20 minutes in the dark at room temperature followed by the addition of 50 μL stop solution (2 M H2SO4).
Total VEGFR2 levels were quantified using a Multiskan Ascent plate reader and Ascent software fitted with 450 nm filter.
For detection of Phospho VEGFR2, 100 μL of Detection antibody (Anti-Phospho-Tyrosine-HRP Detection Antibody, Part #841403 in Phospho VEGFR2 kit) was diluted in IC Diluent 14 (20 mM Tris, 137 mM CaCl2, 0.05% Tween20, 0.1% BSA), was added to the wells and the plate incubated for 2 hours at room temperature. The plate was then washed three times in wash buffer as described above and tapped dry. 100 μL Substrate solution (3,3′,5,5′-Tetramethylbenzidine (TMB) Liquid Substrate System for ELISA, Cat # T0440, Sigma-Aldrich) was added and the plate incubated for 20 minutes in the dark at room temperature followed by the addition of 50 μL stop solution (2 M H2SO4).
Phospho VEGFR2 levels were quantified using a Multiscan ascent plate reader and ascent software fitted with 450 nm filter.
IC50 values are determined by first calculating the level of phospho VEGFR2 relative to Total VEGFR2 according to the following formula:

VEGFR3 cytoplasmic domain, sequence (P35916 798-1298 isoform P35916-1): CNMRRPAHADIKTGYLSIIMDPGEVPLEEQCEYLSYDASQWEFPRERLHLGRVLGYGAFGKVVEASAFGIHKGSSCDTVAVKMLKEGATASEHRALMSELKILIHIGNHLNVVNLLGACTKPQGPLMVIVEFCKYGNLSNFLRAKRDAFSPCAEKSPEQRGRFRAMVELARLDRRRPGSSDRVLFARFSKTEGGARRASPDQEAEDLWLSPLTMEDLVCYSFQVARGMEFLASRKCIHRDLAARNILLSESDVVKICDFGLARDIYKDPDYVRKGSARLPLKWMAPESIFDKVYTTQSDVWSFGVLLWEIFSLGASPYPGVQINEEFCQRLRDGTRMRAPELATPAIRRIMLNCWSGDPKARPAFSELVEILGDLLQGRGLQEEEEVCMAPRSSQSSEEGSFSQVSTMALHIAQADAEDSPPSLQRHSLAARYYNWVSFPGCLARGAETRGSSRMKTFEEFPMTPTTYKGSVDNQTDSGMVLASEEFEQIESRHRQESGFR

Structure (SMILES) | IC50 [1] | IC50 (VEGFR3) | IC50 (VEGFR2)
CCC(C(N)=O)c1ccccc1CCc1nc(Nc2ccc(C3CCNCC3)cc2)ncc1C(F)(F)F (single isomer, unassigned) [Compound 1-1A, 2-(2-(2-(2-((4-(Piperidin-4-yl)phenyl)amino)-5-(trifluoromethyl)pyrimidin-4-yl)ethyl)phenyl)butanamide] | 103 nM | 329 nM | 
CCC(C(N)=O)c1ccccc1CCc1nc(Nc2ccc(C3CCNCC3)cc2)ncc1C(F)(F)F (single isomer, unassigned) [Compound 1-2A, 2-(2-(2-(2-((4-(Piperidin-4-yl)phenyl)amino)-5-(trifluoromethyl)pyrimidin-4-yl)ethyl)phenyl)butanamide] | 75 nM | 315 nM | 
CC(C(N)=O)c1ccccc1CCc1nc(Nc2cnn(C3CCN(C)CC3)c2)ncc1C(F)(F)F (single isomer, unassigned) [Compound 57-1A, 2-(2-(2-(2-((1-(1-Methylpiperidin-4-yl)-1H-pyrazol-4-yl)amino)-5-(trifluoromethyl)pyrimidin-4-yl)ethyl)phenyl)propanamide] |  |  | 518 nM
NC(=O)C1(c2ccccc2CCc2nc(Nc3ccc(C4CCNCC4)cc3)ncc2C(F)(F)F)CC1 [Compound 2, 1-(2-(2-(2-((4-(Piperidin-4-yl)phenyl)amino)-5-(trifluoromethyl)pyrimidin-4-yl)ethyl)phenyl)cyclopropanecarboxamide] | 10 nM | 26 nM | 283 nM
CN1CCC(c2ccc(Nc3ncc(C(F)(F)F)c(CCc4ccccc4C4(C(N)=O)CC4)n3)cc2)CC1 [Compound 3, 1-(2-(2-(2-((4-(1-methylpiperidin-4-yl)phenyl)amino)-5-(trifluoromethyl)pyrimidin-4-yl)ethyl)phenyl)cyclopropanecarboxamide] | 9 nM | 27 nM | 1790 nM
NC(=O)C1(c2ccccc2CCc2nc(Nc3ccc(C4CCNCC4)nc3)ncc2C(F)(F)F)CC1 [Compound 5, 1-(2-(2-(2-((6-(Piperidin-4-yl)pyridin-3-yl)amino)-5-(trifluoromethyl)pyrimidin-4-yl)ethyl)phenyl)cyclopropanecarboxamide] | 28 nM | 51 nM | 4080 nM
NC(=O)C1(c2ccccc2CCc2nc(Nc3cccnc3)ncc2Cl)CC1 [Compound 6, 1-(2-(2-(5-chloro-2-(pyridin-3-ylamino)pyrimidin-4-yl)ethyl)phenyl)cyclopropanecarboxamide] | 8 nM | 17 nM | 6610 nM
NC(=O)C1(c2ccccc2CCc2nc(Nc3ccc(C4CCNCC4)cc3)ncc2Cl)CC1 [Compound 7, 1-(2-(2-(5-chloro-2-((4-(piperidin-4-yl)phenyl)amino)pyrimidin-4-yl)ethyl)phenyl)cyclopropanecarboxamide] | 10 nM | 38 nM | 
CN1CCC(c2ccc(Nc3ncc(Cl)c(CCc4ccccc4C4(C(N)=O)CC4)n3)cc2)CC1 [Compound 8, 1-(2-(2-(5-chloro-2-((4-(1-methylpiperidin-4-yl)phenyl)amino)pyrimidin-4-yl)ethyl)phenyl)cyclopropanecarboxamide] | 10 nM | 19 nM | 897 nM
NC(=O)C1(c2ccccc2CCc2nc(Nc3ccc(C(F)(F)F)nc3)ncc2Cl)CC1 [Compound 9, 1-(2-(2-(5-chloro-2-((6-(trifluoromethyl)pyridin-3-yl)amino)pyrimidin-4-yl)ethyl)phenyl)cyclopropanecarboxamide] | 26 nM | 75 nM | […]
Cn1cc(Nc2ncc(Cl)c(CCc3ccccc3C3(C(N)=O)CC3)n2)cn1 [Compound 13, 1-(2-(2-(5-Chloro-2-((1-methyl-1H-pyrazol-4-yl)amino)pyrimidin-4-yl)ethyl)phenyl)cyclopropanecarboxamide] | 4 nM | 9 nM | 
NC(=O)C1(c2ccccc2CCc2nc(Nc3cnn(C4CNC4)c3)ncc2Cl)CC1 [Compound 14, 1-(2-(2-(2-((1-(Azetidin-3-yl)-1H-pyrazol-4-yl)amino)-5-chloropyrimidin-4-yl)ethyl)phenyl)cyclopropanecarboxamide] | 6 nM | 30 nM | 357 nM
NC(=O)C1(c2ccccc2CCc2nc(Nc3ccc(C4CCNCC4)nc3)ncc2Cl)CC1 [Compound 15, 1-(2-(2-(5-Chloro-2-((6-(piperidin-4-yl)pyridin-3-yl)amino)pyrimidin-4-yl)ethyl)phenyl)cyclopropanecarboxamide] | 11 nM | 51 nM | 2000 nM
NC(=O)C1(c2ccccc2CCc2nc(Nc3cnn(C4CCNCC4)c3)ncc2Cl)CC1 [Compound 17, 1-(2-(2-(5-Chloro-2-((1-(piperidin-4-yl)-1H-pyrazol-4-yl)amino)pyrimidin-4-yl)ethyl)phenyl)cyclopropanecarboxamide] | 9 nM | 62 nM | 393 nM
CN1CCC(n2cc(Nc3ncc(Cl)c(CCc4ccccc4C4(C(N)=O)CC4)n3)cn2)CC1 [Compound 18, 1-(2-(2-(5-chloro-2-((1-(1-methylpiperidin-4-yl)-1H-pyrazol-4-yl)amino)pyrimidin-4-yl)ethyl)phenyl)cyclopropanecarboxamide] | 3 nM | 5 nM | 21 nM
NC(=O)C1(c2ccccc2CCc2nc(Nc3cn[nH]c3)ncc2Cl)CC1 [Compound 19, 1-(2-(2-(2-(1H-Pyrazol-4-ylamino)-5-chloropyrimidin-4-yl)ethyl)phenyl)cyclopropanecarboxamide] | 3 nM | 11 nM | 248 nM
NC(=O)C1(c2ccccc2CCc2nc(Nc3cnn(C4CCNC4)c3)ncc2Cl)CC1 (centres unmarked) [Compound 20, 1-(2-(2-(5-Chloro-2-(1-(pyrrolidin-3-yl)-1H-pyrazol-4-ylamino)pyrimidin-4-yl)ethyl)phenyl)cyclopropanecarboxamide] | 7 nM | 38 nM | 1760 nM
CN1CCC(n2cc(Nc3ncc(Cl)c(CCc4ccccc4C4(C(N)=O)CC4)n3)cn2)C1 (centres unmarked) [Compound 21, 1-(2-(2-(5-Chloro-2-(1-(1-methylpyrrolidin-3-yl)-1H-pyrazol-4-ylamino)pyrimidin-4-yl)ethyl)phenyl)cyclopropanecarboxamide] | 7 nM | 14 nM | 73 nM
CC(NC(=O)OC(C)(C)C)c1ccc(Nc2ncc(Cl)c(CCc3ccccc3C3(C(N)=O)CC3)n2)cc1 (centres unmarked) [Compound 24, tert-Butyl (1-(4-((4-(2-(1-carbamoylcyclopropyl)phenethyl)-5-chloropyrimidin-2-yl)amino)phenyl)ethyl)carbamate] | 2 nM | 25 nM | 
CC(N)c1ccc(Nc2ncc(Cl)c(CCc3ccccc3C3(C(N)=O)CC3)n2)cc1 (centres unmarked) [Compound 24A, 1-(2-(2-(2-((4-(1-Aminoethyl)phenyl)amino)-5-chloropyrimidin-4-yl)ethyl)phenyl)cyclopropanecarboxamide] | 14 nM |  | 209 nM
CC(C(N)=O)c1ccccc1CCc1nc(Nc2cn[nH]c2)ncc1Cl (centres unmarked) [Compound 35, 2-(2-(2-(2-(1H-Pyrazol-4-ylamino)-5-chloropyrimidin-4-yl)ethyl)phenyl)propanamide] | 9 nM | 64 nM | 3790 nM
CC(C(N)=O)c1ccccc1CCc1nc(Nc2cnn(C)c2)ncc1Cl (centres unmarked) [Compound 36, 2-(2-(2-(5-Chloro-2-(1-methyl-1H-pyrazol-4-ylamino)pyrimidin-4-yl)ethyl)phenyl) propanamide] | 16 nM | 76 nM | 8170 nM
Cc1cnc(Nc2cnn(C)c2)nc1CCc1ccccc1C(C)C(N)=O (centres unmarked) [Compound 51, 2-(2-(2-(5-Methyl-2-((1-methyl-1H-pyrazol-4-yl)amino)pyrimidin-4-yl)ethyl)phenyl)propanamide] | 15 nM | 526 nM | 
COc1ccc(Nc2ncc(C(F)(F)F)c(CCc3ccccc3C3(C(N)=O)CC3)n2)cn1 [Compound 64, 1-(2-(2-(2-((6-Methoxypyridin-3-yl)amino)-5-(trifluoromethyl)pyrimidin-4-yl)ethyl)phenyl)cyclopropanecarboxamide] | 8 nM | 394 nM | 
CN1CCC(n2cc(Nc3ncc(C(F)(F)F)c(CCc4ccccc4C4(C(N)=O)CC4)n3)cn2)CC1 [Compound 67, 1-(2-(2-(2-((1-(1-Methylpiperidin-4-yl)-1H-pyrazol-4-yl)amino)-5-(trifluoromethyl)pyrimidin-4-yl)ethyl)phenyl)cyclopropanecarboxamide] | 7 nM |  | 
CN1CCC(c2ccc(Nc3ncc(C(F)(F)F)c(CCc4ccccc4C4(C(N)=O)CC4)n3)cn2)CC1 [Compound 69, 1-(2-(2-(2-((6-(1-Methylpiperidin-4-yl)pyridin-3-yl)amino)-5-(trifluoromethyl)pyrimidin-4-yl)ethyl)phenyl)cyclopropanecarboxamide] | 63 nM |  | 
CC(N)c1ccc(Nc2ncc(C(F)(F)F)c(CCc3ccccc3C3(C(N)=O)CC3)n2)cc1 (centres unmarked) [Compound 70A, 1-(2-(2-(2-(4-(1-Aminoethyl)phenylamino)-5-(trifluoromethyl)pyrimidin-4-yl)ethyl)phenyl)cyclopropanecarboxamide] | 22 nM |  | 
CC(=O)NC(C)c1ccc(Nc2ncc(C(F)(F)F)c(CCc3ccccc3C3(C(N)=O)CC3)n2)cc1 (centres unmarked) [Compound 71, 1-(2-(2-(2-(4-(1-Acetamidoethyl)phenylamino)-5-(trifluoromethyl)pyrimidin-4-yl)ethyl)phenyl)cyclopropanecarboxamide] | 10 nM |  | 
NC(=O)C1(c2ccccc2CCc2nc(Nc3cnn(CCO)c3)ncc2Cl)CC1 [Compound 76] | 4 nM |  | 
COCCn1cc(Nc2ncc(Cl)c(CCc3ccccc3C3(C(N)=O)CC3)n2)cn1 [Compound 77] | 3 nM |  | 
